The test concerns the target T1, Porcine dipeptidyl peptidase IV (Sus scrofa, UniProt P22411).
T1 construct: purchased Sigma D-7052
As to the kind of experiment: Inhibition of dipeptidyl peptidase IV (DPP-IV) activity, Ala-Pro-AFC fluorimetric assay. The format is biochemical. Particulars: for inhibition at 0.1 µM: test compound at 100 nM, read-out: Percent Inhibition of DPP-IV at 100 nM; for inhibition at 0.1 µM / inhibition at 1 µM: in duplicate; for inhibition at 1 µM: test compound at 1 uM, read-out: Percent Inhibition of DPP-IV at 1 uM; for IC50: 8 point concentration curves in duplicate, Ala-Pro-AFC 20 μM, Tris-HCl pH 8.0, 37° C. As to the method:
Porcine dipeptidyl peptidase IV (Sigma, D-7052) is used. Test compound and/or vehicle is pre-incubated with enzyme (70 μU ? /ml) in Tris-HCl pH 8.0 for 15 minutes at 37° C. Ala-Pro-AFC (20 μM) is then added for a further 30 minutes incubation period. The concentration of proteolytic product, AFC, is then read spectrofluorimetrically. 8 point concentration curves in duplicate are used to calculate IC50 values, or percent inhibition is measured in duplicate at two dose levels.

T1 sequence (P22411 whole entry): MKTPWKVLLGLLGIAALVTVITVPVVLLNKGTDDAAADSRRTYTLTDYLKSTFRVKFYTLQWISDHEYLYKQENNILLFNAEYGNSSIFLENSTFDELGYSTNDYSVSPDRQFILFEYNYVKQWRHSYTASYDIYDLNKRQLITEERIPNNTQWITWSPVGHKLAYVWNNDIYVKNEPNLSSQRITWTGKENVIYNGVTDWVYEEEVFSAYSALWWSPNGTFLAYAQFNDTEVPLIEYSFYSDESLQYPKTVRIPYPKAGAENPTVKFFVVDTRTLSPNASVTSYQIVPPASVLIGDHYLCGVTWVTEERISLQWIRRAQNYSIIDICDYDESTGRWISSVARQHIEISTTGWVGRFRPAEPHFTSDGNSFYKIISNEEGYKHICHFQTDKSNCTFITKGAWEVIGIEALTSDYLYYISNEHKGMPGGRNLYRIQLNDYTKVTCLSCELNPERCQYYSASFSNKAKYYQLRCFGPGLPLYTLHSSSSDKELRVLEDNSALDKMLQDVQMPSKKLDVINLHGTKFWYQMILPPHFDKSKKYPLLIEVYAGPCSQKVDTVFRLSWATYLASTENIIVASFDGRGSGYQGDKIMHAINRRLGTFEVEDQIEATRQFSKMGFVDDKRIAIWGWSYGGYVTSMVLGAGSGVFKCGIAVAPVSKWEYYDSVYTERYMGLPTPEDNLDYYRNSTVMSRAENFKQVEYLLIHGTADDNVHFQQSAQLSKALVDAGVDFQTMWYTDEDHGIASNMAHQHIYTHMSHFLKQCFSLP

As for `N#C[C@@H]1CCCN1C(=O)CNC12CC3CC(C1)CC(NS(=O)(=O)CC(F)(F)F)(C3)C2` [Example 3, (S)-1-[(3-(2,2,2-trifluoro)-ethanesulfonamido-1-adamantyl)amino]acetyl-2-cyano-pyrrolidine], the inhibition at 0.1 µM was 68% and the inhibition at 1 µM amounted to 94%.
On the same counts, the results for `N#Cc1ccc(NC23CC4CC(CC(NCC(=O)N5CCC[C@H]5C#N)(C4)C2)C3)nc1` [Example 5, 6-(3-(2-((S)-2-cyanopyrrolidin-1-yl)-2-oxoethylamino)-adamantylamino)nicotinonitrile] are 96% and 99%.
`N#C[C@@H]1CCCN1C(=O)CNC12CC3CC(C1)CC(NC(=O)NS(=O)(=O)c1ccc(F)cc1)(C3)C2` [Example 7, 1-(3-(2-((S)-2-cyanopyrrolidin-1-yl)-2-oxoethylamino)-adamantyl)-3-(4-fluorophenylsulfonyl)urea] came in with an IC50 of 70 nM.
On the same count and under the same terms, to `CN(C)S(=O)(=O)NC12CC3CC(CC(NCC(=O)N4CCC[C@H]4C#N)(C3)C1)C2` [Example 6, N′-(3-(2-((S)-2-cyanopyrrolidin-1-yl)-2-oxoethylamino)-adamantyl)-N,N-dimethyl-sulfamide] belongs 61 nM.
With `CCS(=O)(=O)NC12CC3CC(CC(NCC(=O)N4CCC[C@H]4C#N)(C3)C1)C2` [Example 2, (S)-1-[(3-ethanesulfonamido-1-adamantyl)amino]acetyl-2-cyano-pyrrolidine], the inhibition at 0.1 µM worked out at 60% and the inhibition at 1 µM was found to be 92%.
In turn, `N#C[C@@H]1CCCN1C(=O)CNC12CC3CC(C1)CC(NS(=O)(=O)c1ccc(F)cc1)(C3)C2` [Example 4, (S)-1-[(3-(4-fluorophenyl)sulfonamido-1-adamantyl)amino]acetyl-2-cyano-pyrrolidine] displayed a half-maximal inhibitory concentration (IC50) of 46 nM.
Same read-out and setting: the value for `CS(=O)(=O)NC12CC3CC(CC(NCC(=O)N4CCC[C@H]4C#N)(C3)C1)C2` [Example 1, (S)-1-[(3-methanesulfonamido-1-adamantyl)amino]acetyl-2-cyano-pyrrolidine] was 59 nM.

The values above are taken from patent US7842707B2, “Peptidase inhibitors” (Nuada, LLC, priority 2004, dated 2010).
